Measurements published in ChEMBL document CHEMBL5096202, “Carbon-silicon switch led to the discovery of novel synthetic cannabinoids with therapeutic effects in a mouse model of multiple sclerosis” (Eur J Med Chem, 2021).
The source made the active and inactive calls. The rule behind the calls is not given here.

Legend:
[1] = Half life in C57BL/6 mouse at 10 mg/kg, ip measured upto 24 hrs by LC-MS/MS analysis; assay type: ADME, organism-based; conditions: in vivo
Mus musculus [2] = assay: (§1) Antiinflammatory activity in MOG (35 to 55 residues)/pertussis toxin-induced experimental autoimmune encephalomyelitis C57BL/6 mouse model assessed as reduction of inflammatory cell infiltration in transverse section of lumbar spinal cords at 5 to 10 mg/kg, ip administered starting from day 3 to day 28 by H&E staining based analysis; assay type: functional, organism-based; conditions: dose 5-10 mg/kg, time 25.0 day
Mus musculus [3] = assay: Antiinflammatory activity in MOG (35 to 55 residues)/pertussis toxin-induced experimental autoimmune encephalomyelitis C57BL/6 mouse model assessed as reduction in infarcted brain proportion at 5 to 10 mg/kg, ip administered starting from day 3 to day 28 by TTC staining based analysis relative to control; assay type: functional; set-up: scale not given: the % may be the effect or the level left; conditions: dose 5-10 mg/kg, time 25 day
Cannabinoid receptor 1 [4] = target: T1, Cannabinoid receptor 1 (Homo sapiens, UniProt P21554); assay: Agonist activity at recombinant human CB1 receptor expressed in CHO cells assessed as inhibition of forskolin-induced cAMP accumulation preincubated for 15 mins followed by forskolin stimulation and measured after 15 mins by HTRF assay; assay type: functional, cell-based
[5] = Metabolic stability in rat liver microsomes assessed as intrinsic clearance; assay type: ADME, Microsome; conditions: read-out: CLH
[6] = AUClast in C57BL/6 mouse at 10 mg/kg, ip measured upto 24 hrs by LC-MS/MS analysis; assay type: ADME, organism-based; set-up: time < 24 hrs, dose 10 mg/kg, route ip; conditions: in vivo
[7] = Metabolic stability in mouse liver microsomes assessed as half life; assay type: ADME, Microsome
Mus musculus [8] = assay: as §1, with “in demyelination” for “of inflammatory cell infiltration”; assay type: functional, organism-based; conditions: dose 5-10 mg/kg, time 25.0 day
Cannabinoid receptor 2 [9] = target: T2, Cannabinoid receptor 2 (Homo sapiens, UniProt P34972); assay: Agonist activity at recombinant human CB2 receptor expressed in CHO cells assessed as inhibition of forskolin-induced cAMP accumulation preincubated for 15 mins followed by forskolin stimulation and measured after 15 mins by HTRF assay; assay type: functional, cell-based
Mus musculus [10] = assay: Antiinflammatory activity in MOG (35 to 55 residues)/pertussis toxin-induced experimental autoimmune encephalomyelitis C57BL/6 mouse model assessed as reduction in clinical score administered intraperitoneally starting from day 3 to day 28; assay type: functional, organism-based; conditions: route ip, time 25.0 day, DDE = dose-dependent effect
Mus musculus [11] = assay: as §1, with “LFB” for “H&E”; assay type: functional, organism-based; conditions: dose 5-10 mg/kg, time 25.0 day
Mus musculus [12] = assay: as §1, with “in demyelination” for “of inflammatory cell infiltration”, “LFB” for “H&E”; assay type: functional, organism-based; conditions: dose 5-10 mg/kg, time 25.0 day
[13] = Tmax in C57BL/6 mouse at 10 mg/kg, ip measured upto 24 hrs by LC-MS/MS analysis; assay type: ADME, organism-based; conditions: in vivo
[14] = AUCinfinity in C57BL/6 mouse at 10 mg/kg, ip measured upto 24 hrs by LC/MS-MS analysis; assay type: ADME, organism-based; set-up: dose 10 mg/kg, time < 24 hrs, route ip; conditions: in vivo
[15] = Toxicity in MOG (35 to 55 residues)/pertussis toxin-induced experimental autoimmune encephalomyelitis C57BL/6 mouse model assessed as body weight loss at 5 to 10 mg/kg, ip administered starting from day 3 to day 28; assay type: organism-based; conditions: in vivo, 600 h, dose 5-10 mg/kg, time 25 day
Cannabinoid receptor 1 [16] = target: T1, Cannabinoid receptor 1; assay: Displacement of [3H]-CP55940 from recombinant human CB1 receptor expressed in CHO cells assessed as inhibition constant incubated for 120 mins by radioligand binding assay; assay type: cell-based
[17] = Metabolic stability in rat liver microsomes assessed as half life; assay type: ADME, Microsome
Cannabinoid receptor 1 [18] = target: T1, Cannabinoid receptor 1; assay: Agonist activity at recombinant human CB1 receptor expressed in CHO cells assessed as inhibition of forskolin-induced cAMP accumulation by measuring maximum efficacy preincubated for 15 mins followed by forskolin stimulation and measured after 15 mins by HTRF assay relative to control; assay type: functional, cell-based; conditions: filed as agonist, time 30.0 min
[19] = Toxicity in MOG (35 to 55 residues)/pertussis toxin-induced experimental autoimmune encephalomyelitis C57BL/6 mouse model assessed as behavioral changes at 10 mg/kg, ip administered once daily starting from day 3 to day 28; assay type: organism-based; conditions: in vivo, 600 h, time 25 day
Cannabinoid receptor 2 [20] = target: T2, Cannabinoid receptor 2; assay: Agonist activity at recombinant human CB2 receptor expressed in CHO cells assessed as inhibition of forskolin-induced cAMP accumulation by measuring maximum efficacy preincubated for 15 mins followed by forskolin stimulation and measured after 15 mins by HTRF assay relative to control; assay type: functional, cell-based; conditions: filed as agonist, time 30.0 min
[21] = Metabolic stability in human liver microsomes assessed as intrinsic clearance; assay type: ADME, Microsome; conditions: read-out: CLH
Cannabinoid receptor 2 [22] = target: T2, Cannabinoid receptor 2; assay: Displacement of [3H]-CP55940 from recombinant human CB2 receptor expressed in CHO cells assessed as inhibition constant incubated for 120 mins by radioligand binding assay; assay type: cell-based
[23] = Metabolic stability in human liver microsomes assessed as half life; assay type: ADME, Microsome
[24] = Metabolic stability in mouse liver microsomes assessed as intrinsic clearance; assay type: ADME, Microsome; conditions: read-out: CLH
[25] = Cmax in C57BL/6 mouse at 10 mg/kg, ip measured upto 24 hrs by LC-MS/MS analysis; assay type: ADME, organism-based; set-up: dose 10 mg/kg, time < 24 hrs, route ip; conditions: in vivo

T1 sequence (P21554 whole entry): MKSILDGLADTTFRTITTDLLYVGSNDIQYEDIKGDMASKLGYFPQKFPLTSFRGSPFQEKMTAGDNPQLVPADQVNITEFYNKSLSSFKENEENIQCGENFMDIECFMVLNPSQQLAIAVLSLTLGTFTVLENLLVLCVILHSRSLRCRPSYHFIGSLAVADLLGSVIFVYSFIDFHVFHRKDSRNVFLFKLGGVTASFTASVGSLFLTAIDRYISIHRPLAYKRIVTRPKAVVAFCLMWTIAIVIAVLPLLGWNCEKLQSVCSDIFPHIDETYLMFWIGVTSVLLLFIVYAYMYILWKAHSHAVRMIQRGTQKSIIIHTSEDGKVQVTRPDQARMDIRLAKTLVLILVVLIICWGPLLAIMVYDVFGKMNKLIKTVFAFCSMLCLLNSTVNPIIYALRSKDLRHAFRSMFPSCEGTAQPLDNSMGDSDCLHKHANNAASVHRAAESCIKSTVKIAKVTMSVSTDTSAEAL
T2 sequence (P34972 whole entry, the tested form may be a part): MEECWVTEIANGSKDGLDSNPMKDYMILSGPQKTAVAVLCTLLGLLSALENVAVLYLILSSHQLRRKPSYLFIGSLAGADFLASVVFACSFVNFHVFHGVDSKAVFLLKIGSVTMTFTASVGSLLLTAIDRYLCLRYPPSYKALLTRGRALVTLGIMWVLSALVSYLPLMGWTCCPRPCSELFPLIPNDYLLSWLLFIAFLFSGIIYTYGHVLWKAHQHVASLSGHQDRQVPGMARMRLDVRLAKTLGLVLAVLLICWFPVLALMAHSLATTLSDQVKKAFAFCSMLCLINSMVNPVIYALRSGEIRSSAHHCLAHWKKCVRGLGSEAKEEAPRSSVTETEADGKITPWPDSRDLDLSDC

**Q.** For `C=C(C)[C@@H]1CCC(C)=C[C@H]1c1c(O)cc([Si](C)(C)CCCCCC)cc1O`, which half-life [1] is on record?
**A.** 314 min

**Q.** And the Activity (Mus musculus [2])?
**A.** Active

**Q.** What about the Activity (Mus musculus [3]) of the same molecule?
**A.** 50%

**Q.** And the EC50 (Cannabinoid receptor 1 [4])?
**A.** 219 nM

**Q.** What about the CLint scaled [5] of the same molecule?
**A.** 318 mL/min/kg

**Q.** What about the AUC(0-t) at 24 h [6] of the same molecule?
**A.** 6630 ng·h/mL

**Q.** What about the half-life [7] of the same molecule?
**A.** 17.1 min

**Q.** And the Activity (Mus musculus [8])?
**A.** Active

**Q.** And the EC50 (Cannabinoid receptor 2 [9])?
**A.** 149 nM

**Q.** What about the Activity (Mus musculus [10]) of the same molecule?
**A.** Dde

**Q.** And the Activity (Mus musculus [11])?
**A.** Active

**Q.** What about the Activity (Mus musculus [12]) of the same molecule?
**A.** Active

**Q.** And the Tmax [13]?
**A.** 2 h

**Q.** What about the AUC(0-inf) [14] of the same molecule?
**A.** 6840 ng·h/mL

**Q.** And the Activity [15]?
**A.** Non-Toxic

**Q.** What about the Ki (Cannabinoid receptor 1 [16]) of the same molecule?
**A.** 1.56 nM

**Q.** What about the half-life [17] of the same molecule?
**A.** 19.4 min

**Q.** What about the Emax (Cannabinoid receptor 1 [18]) of the same molecule?
**A.** 95.9%

**Q.** What about the Activity [19] of the same molecule?
**A.** Toxic

**Q.** What about the Emax (Cannabinoid receptor 2 [20]) of the same molecule?
**A.** 75.6%

**Q.** What about the CLint scaled [21] of the same molecule?
**A.** 55.2 mL/min/kg

**Q.** What about the Ki (Cannabinoid receptor 2 [22]) of the same molecule?
**A.** 4.66 nM

**Q.** And the half-life [23]?
**A.** 31.5 min

**Q.** What about the CLint scaled [24] of the same molecule?
**A.** 128 mL/min/kg

**Q.** And the Cmax [25]?
**A.** 1510 ng/mL
